Data: patent US9102671B2, “Compounds and compositions as TRK inhibitors” (Novartis AG, priority 2011, dated 2015)

How the values were obtained:
[1] = molecular target: T1, Ba/F3 cells transformed with human Tel-TrkA (Homo sapiens, UniProt P04629); assay: Ba/F3 cell proliferation, Ba/F3 Tel-TrkA; type: cell-based; details: inhibition of proliferation, 48 hours, Bright-Glo luminescence; read-out: Ba/F3Tel-TrkA
T1 construct: expressed in transfected cells; host or cells: luciferase expressing Ba/F3 murine hematopoietic progenitor cell line; the other entry of the earlier key: ETV6 (P41212, Transcription factor ETV6)
T1 sequence (P04629 510-796 limits assumed): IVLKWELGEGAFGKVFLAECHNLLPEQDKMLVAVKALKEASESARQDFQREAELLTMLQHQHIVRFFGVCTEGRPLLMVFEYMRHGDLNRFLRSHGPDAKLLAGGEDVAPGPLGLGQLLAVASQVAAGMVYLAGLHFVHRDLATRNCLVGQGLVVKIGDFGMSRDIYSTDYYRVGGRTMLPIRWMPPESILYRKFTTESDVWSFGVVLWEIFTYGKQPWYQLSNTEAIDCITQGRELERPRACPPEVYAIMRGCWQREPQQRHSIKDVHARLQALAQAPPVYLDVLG
Description: (§1) Test compounds were dissolved in DMSO (10 mM) and transferred into 1.4 mL flat bottom or V-shaped Matrix tubes carrying a unique 2D matrix chip by individual compound hubs. The numbers of these chips were distinctively linked to the individual compound identification numbers. The stock solutions were stored at −20° C. if not used immediately. For the test procedure the vials were defrosted and identified by a scanner whereby a working sheet is generated that guides the subsequent working steps.
(§2) Compound dilutions were made in 384 well plates. This format enabled the assay of maximally 28 individual test compounds at 11 concentrations (single points) including 2 reference compounds. The dilution protocol included the production of pre-dilution plates, master plates and assay plates: • Compound plates: 30 μL of individual compound (10 mM) DMSO solution including reference compound were transferred into columns 1 and 13 of a 384 well plate. 20 μL of DMSO were added to the rest of the wells and the compounds were serially diluted (1:3) by transferring 10 μL from a well in column 1 or 13 to the next well in column 2 or 14 respectively and successively with the help of a Minitrack robot. • Assay plates: Identical assay plates were then prepared by adding 50 nL each of compound dilutions of the compound plates into 384-well “assay plates”. In the following the compounds were mixed with 50 μL of assays components (cells or enzyme) and tested for their inhibitory activity.
(§3) The cell line used is the luciferase expressing Ba/F3 murine hematopoietic progenitor cell line transformed with human Tel-TrkA, Tel-TrkB or Tel-TrkC cDNAs (Ba/F3 EN A/B/C). These cells maintained in RPMI/10% fetal bovine serum (RPMI/FCS) supplemented with penicillin 50 mg/mL, streptomycin 50 mg/mL and L-glutamine 200 mM. Untransformed Ba/F3 cells were similarly maintained with the addition 5 ng/ml of murine recombinant IL3. 50 μl of a Ba/F3 or Ba/F3 EN A/B/C cell suspension were plated in Greiner 384 well microplates (white)) at a density of 2000 cells per well. 50 nl of serially diluted test compound (10-0.0001 mM in DMSO solution) is added to each well. The cells were incubated for 48 hours at 37° C., 5% CO2. 25 μl of Bright Glo® (Promega) luciferase substrate is added to each well. The emited luminiscence is quantified using ViewLux (PerkinElmer). IC50 values were calculated by linear regression analysis of the percentage inhibition of each compound at 11 concentrations.
In certain examples compounds of Formula (I) have IC50 values from 0.1 nM 1 μM. In other examples, compounds of Formula (I) have IC50 values from 0.0001 μM to 0.8 μM. In other examples, compounds of Formula (I) have IC50 values from 0.0001 μM to 0.6 μM. In other examples, compounds of Formula (I) have IC50 values from 0.0001 μM to 0.4 μM. In other examples, compounds of Formula (I) have IC50 values from 0.0001 μM to 0.2 μM. In other examples, compounds of Formula (I) have IC50 values from 0.0001 μM to 0.1 μM. In other examples, compounds of Formula (I) have IC50 values from 0.0001 μM to 0.08 μM. In other examples, compounds of Formula (I) have IC50 values from 0.0001 μM to 0.06 μM. In other examples, compounds of Formula (I) have IC50 values from 0.0001 μM to 0.04 μM. In other examples, compounds of Formula (I) have IC50 values from 0.0001 μM to 0.02 μM. In other examples, compounds of Formula (I) have IC50 values from 0.0001 μM to 0.01 μM. In other examples, compounds of Formula (I) have IC50 values from 0.01 μM to 1 μM.

[2] = test system: parental (untransformed) Ba/F3 cells; assay: Ba/F3 cell proliferation, BAF3/WT (parental, IL3); type: cell-based, murine; details: Mus musculus, inhibition of proliferation of parental cells with IL3, 48 hours, Bright-Glo luminescence
Description: as §1, §2
Compounds were tested for their ability to inhibit the proliferation of wt Ba/F3 cells and Ba/F3 cells transformed with constitutively expressed luciferase reporter and BCR-ABL or Tel-FMS or other Tel fusion kinases (EGFR, JAK2, ALK, BMX, FGFR3, FGFR4, FGR2, FLT1, FLT3, IGF1R, INSR, KDR, KIT, LCK, LYN, MEK, MET, PDGFRα, PDGFRβ, RET, RON, ROS, SRC, SYK, TIE and TYRO) or BRafV600E. Parental Ba/F3 cells were maintained in media containing recombinant mouse IL3 and the kinase transformed Ba/F3 cells were maintained in media without IL-3. 7.5 nl of compounds were spotted to each well of 1536-well assay plates by Liquid handling System Echo 555 (Labcyte). 700 cells were then plated into each well of the assay plates in 7 uL culture media per well and compounds were tested at 0.17 nM to 10 uM in 3-fold serial dilutions. The cells were then incubated for 48 hours at 37° C. 3 uL of Bright-Glo® (Promega) was added to each well and the plates were read using ViewLux (PerkinElmer).
as §3, with “concentrations. […]” for “concentrations.”

[3] = molecular target: T2, Ba/F3 cells co-expressing full length rTrkA and mNGF (Rattus norvegicus, UniProt P35739); assay: Ba/F3 cell proliferation, BaF3/TRKA-NGF; type: cell-based; details: inhibition of proliferation, 48 hours, Bright-Glo luminescence
T2 construct: co-expressing full length rTrkA and mNGF; expressed in transfected cells; host or cells: Ba/F3 murine hematopoietic progenitor cells
T2 sequence (P35739 33-799): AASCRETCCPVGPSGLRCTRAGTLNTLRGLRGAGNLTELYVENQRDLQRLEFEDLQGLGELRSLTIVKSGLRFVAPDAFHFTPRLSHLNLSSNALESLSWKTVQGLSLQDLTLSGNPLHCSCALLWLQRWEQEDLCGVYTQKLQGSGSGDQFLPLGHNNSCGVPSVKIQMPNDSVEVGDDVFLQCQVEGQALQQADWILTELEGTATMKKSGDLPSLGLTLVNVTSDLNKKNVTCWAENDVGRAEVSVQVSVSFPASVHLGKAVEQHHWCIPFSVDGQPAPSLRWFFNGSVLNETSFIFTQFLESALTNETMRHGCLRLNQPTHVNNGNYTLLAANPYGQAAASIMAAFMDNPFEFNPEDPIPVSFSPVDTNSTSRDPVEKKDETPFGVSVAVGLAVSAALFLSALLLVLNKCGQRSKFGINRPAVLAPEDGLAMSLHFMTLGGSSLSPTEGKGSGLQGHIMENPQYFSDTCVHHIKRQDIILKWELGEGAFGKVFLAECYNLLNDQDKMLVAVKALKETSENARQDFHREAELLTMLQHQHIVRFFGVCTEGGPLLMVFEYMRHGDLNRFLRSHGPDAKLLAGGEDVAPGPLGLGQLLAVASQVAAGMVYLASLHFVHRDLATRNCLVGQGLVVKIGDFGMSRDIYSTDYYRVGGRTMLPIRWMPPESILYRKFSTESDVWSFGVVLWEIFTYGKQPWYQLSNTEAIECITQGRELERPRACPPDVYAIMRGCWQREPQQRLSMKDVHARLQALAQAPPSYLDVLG
T2 sequence (P01139 122-241 partner): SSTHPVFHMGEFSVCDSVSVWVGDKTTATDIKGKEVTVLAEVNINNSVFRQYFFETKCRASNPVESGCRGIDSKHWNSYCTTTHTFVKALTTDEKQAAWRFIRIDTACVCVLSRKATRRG

Row | Compound | IC50 [1] | IC50 [2] | IC50 [3]
1 | CCOC(=O)c1cnn2ccc(N3CC(F)(F)C[C@@H]3c3cccc(F)c3)cc12 [Example X-2, (R)-ethyl 5-(4,4-difluoro-2-(3-fluorophenyl)pyrrolidin-1-yl)pyrazolo[1,5-a]pyridine-3-carboxylate] | 3 nM | > 10000 nM | 3 nM
2 | NC(=O)c1cnn2ccc(N3CC(F)(F)C[C@@H]3c3cccc(F)c3)cc12 [Example X-6, (R)-5-(4,4-difluoro-2-(3-fluorophenyl)pyrrolidin-1-yl)pyrazolo[1,5-a]pyridine-3-carboxamide] | 24 nM | > 10000 nM | 16 nM
3 | CCOC(=O)c1cnn2ccc(N3C[C@@H](F)C[C@@H]3c3cccc(F)c3)cc12 [Example X-1, ethyl 5-((2R,4S)-4-fluoro-2-(3-fluorophenyl)pyrrolidin-1-yl)pyrazolo[1,5-a]pyridine-3-carboxylate] | – | 4100 nM | 1 nM
4 | NC(=O)c1cnn2ccc(N3C[C@@H](F)C[C@@H]3c3cccc(F)c3)cc12 [Example X-5, 5-((2R,4S)-4-fluoro-2-(3-fluorophenyl)pyrrolidin-1-yl)pyrazolo[1,5-a]pyridine-3-carboxamide] | 6 nM | > 10000 nM | 7 nM
5 | CN(C)C(=O)c1cnn2ccc(N3C[C@@H](F)C[C@@H]3c3cccc(F)c3)cc12 [Example X-15, 5-[(2R,4S)-4-fluoro-2-(3-fluorophenyl)pyrrolidin-1-yl]-N,N-dimethylpyrazolo[1,5-a]pyridine-3-carboxamide] | 50 nM | > 10000 nM | 43 nM
6 | CC(C)(C)NC(=O)c1cnn2ccc(N3C[C@@H](F)C[C@@H]3c3cccc(F)c3)cc12 [Example X-16, N-tert-butyl-5-[(2R,4S)-4-fluoro-2-(3-fluorophenyl)pyrrolidin-1-yl]pyrazolo[1,5-a]pyridine-3-carboxamide] | 5 nM | > 10000 nM | 6 nM
7 | NC(=O)c1cnn2ccc(N3C[C@H](O)C[C@@H]3c3cccc(F)c3)cc12 [Example X-24, 5-[(2R,4R)-2-(3-fluorophenyl)-4-hydroxypyrrolidin-1-yl]pyrazolo[1,5-a]pyridine-3-carboxamide] | 395 nM | > 10000 nM | 119 nM
8 | NC(=O)c1cnn2ccc(N3CCCCC3c3cccc(F)c3)cc12 (centres unmarked) [Example X-12, 5-[2-(3-fluorophenyl)piperidin-1-yl]pyrazolo[1,5-a]pyridine-3-carboxamide] | 225 nM | > 10000 nM | 97 nM
9 | O=C(NCCO)c1cnn2ccc(N3C[C@@H](F)C[C@@H]3c3cccc(F)c3)cc12 [Example X-17, 5-[(2R,4S)-4-fluoro-2-(3-fluorophenyl)pyrrolidin-1-yl]-N-(2-hydroxyethyl)pyrazolo[1,5-a]pyridine-3-carboxamide] | 9 nM | > 10000 nM | 14 nM
10 | NC(=O)c1cnn2ccc(N3CCCC3c3ccccc3C(F)(F)F)cc12 (centres unmarked) [Example X-13, 5-{2-[2-(trifluoromethyl)phenyl]pyrrolidin-1-yl}pyrazolo[1,5-a]pyridine-3-carboxamide] | 712 nM | > 10000 nM | 341 nM
11 | Cc1ccc(C)c(C2CCCN2c2ccn3ncc(C(N)=O)c3c2)c1 (centres unmarked) [Example X-28] | 2140 nM | > 10000 nM | 1090 nM
12 | NC(=O)c1cnn2ccc(N3C[C@@H](C(N)=O)C[C@@H]3c3cccc(F)c3)cc12 [Example X-26, 5-((2R,4S)-4-carbamoyl-2-(3-fluorophenyl)pyrrolidin-1-yl)pyrazolo[1,5-a]pyridine-3-carboxamide] | 443 nM | > 10000 nM | 232 nM
13 | O=C(Nc1ccccc1)c1cnn2ccc(N3C[C@@H](F)C[C@@H]3c3cccc(F)c3)cc12 [Example X-22, 5-[(2R,4S)-4-fluoro-2-(3-fluorophenyl)pyrrolidin-1-yl]-N-phenylpyrazolo[1,5-a]pyridine-3-carboxamide] | 11 nM | > 10000 nM | 17 nM
14 | NC(=O)c1cc(F)cc([C@H]2CC(F)(F)CN2c2ccn3ncc(C(N)=O)c3c2)c1 [Example X-9, (R)-5-(2-(3-carbamoyl-5-fluorophenyl)-4,4-difluoropyrrolidin-1-yl)pyrazolo[1,5-a]pyridine-3-carboxamide] | 37 nM | > 10000 nM | 48 nM
15 | CCNC(=O)c1cnn2ccc(N3C[C@@H](F)C[C@@H]3c3cccc(F)c3)cc12 [Example X-14, N-ethyl-5-[(2R,4S)-4-fluoro-2-(3-fluorophenyl)pyrrolidin-1-yl]pyrazolo[1,5-a]pyridine-3-carboxamide] | 6 nM | > 10000 nM | 8 nM
16 | N#Cc1cc(F)cc([C@H]2CC(F)(F)CN2c2ccn3ncc(C(N)=O)c3c2)c1 [Example X-11, (R)-5-(2-(3-cyano-5-fluorophenyl)-4,4-difluoropyrrolidin-1-yl)pyrazolo[1,5-a]pyridine-3-carboxamide] | 21 nM | > 10000 nM | 24 nM
17 | N#C[C@H]1C[C@H](c2cccc(F)c2)N(c2ccn3ncc(C(N)=O)c3c2)C1 [Example X-25, 5-((2R,4S)-4-cyano-2-(3-fluorophenyl)pyrrolidin-1-yl)pyrazolo[1,5-a]pyridine-3-carboxamide] | 125 nM | > 10000 nM | 58 nM
18 | CCOC(=O)c1cnn2ccc(N3C[C@@H](C#N)C[C@@H]3c3cccc(F)c3)cc12 [Example X-19, ethyl 5-((2R,4S)-4-cyano-2-(3-fluorophenyl)pyrrolidin-1-yl)pyrazolo[1,5-a]pyridine-3-carboxylate] | 7 nM | > 10000 nM | 7 nM
